Measured values published in PubChem BioAssay AID1963982 (Molecular Pharmacology Branch, DTP, NCI, 2024).

Tested on: 313798-341-R-J2-PDC spheroids, viability
Assay: Anticancer human tumor 313798-341-R-J2-PDC patient-derived cervical squamous cell carcinoma cell line growth inhibition [PI3K]
Conditions: spheroids with HUVEC and MSC; for IC50: curve of first compound; for viability, T/C: stronger effect = lower value
How it was run: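 Stroma-containing spheroids: tumor line, pooled-donor HUVEC, hMSC. Treatments: targeted agents with PI3K inhibitors. Dosing: clinically relevant, half-log spacing, 10 microM ceiling without known Cmax. Read-out: cell viability.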

[1] = second compound 0.0316 µM, first compound 0.00316 µM
[2] = second compound 0.0316 µM, first compound 0.01 µM
[3] = second compound 0.0316 µM, first compound 0.0316 µM
[4] = second compound 0.0316 µM, first compound 0.1 µM
[5] = second compound 0.1 µM, first compound 0.00316 µM
[6] = second compound 0.1 µM, first compound 0.01 µM
[7] = second compound 0.1 µM, first compound 0.0316 µM
[8] = second compound 0.1 µM, first compound 0.1 µM
[9] = second compound 0.316 µM, first compound 0.00316 µM
[10] = second compound 0.316 µM, first compound 0.01 µM
[11] = second compound 0.316 µM, first compound 0.0316 µM
[12] = second compound 0.316 µM, first compound 0.1 µM
[13] = second compound 1 µM, first compound 0.00316 µM
[14] = second compound 1 µM, first compound 0.01 µM
[15] = second compound 1 µM, first compound 0.0316 µM
[16] = second compound 1 µM, first compound 0.1 µM
[17] = second compound 3.16 µM, first compound 0.0316 µM
[18] = second compound 3.16 µM, first compound 0.1 µM
[19] = second compound 10 µM, first compound 0.0316 µM
[20] = second compound 10 µM, first compound 0.1 µM
[21] = second compound 0.0316 µM, first compound 0.316 µM
[22] = second compound 0.0316 µM, first compound 1 µM
[23] = second compound 0.1 µM, first compound 0.316 µM
[24] = second compound 0.1 µM, first compound 1 µM
[25] = second compound 0.316 µM, first compound 0.316 µM
[26] = second compound 0.316 µM, first compound 1 µM
[27] = second compound 1 µM, first compound 0.316 µM
[28] = second compound 1 µM, first compound 1 µM
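Note: spheroids exposed to compounds for seven days.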
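Throughout, for viability, T/C: 100% = DMSO vehicle control viability.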

With `CC(=O)c1c(C)c2cnc(Nc3ccc(N4CCNCC4)cn3)nc2n(C2CCCC2)c1=O` + Cc1nc(NC(=O)N2CCCC2C(N)=O)sc1-c1ccnc(C(C)(C)C(F)(F)F)c1 the IC50 (second compound 0.0316 µM) was over 0.1 µM, the IC50 (second compound 0.1 µM) was over 0.1 µM and the IC50 (second compound 0.316 µM) was over 0.1 µM. The IC50 (second compound 1 µM) was over 0.1 µM, the IC50 (second compound 3.16 µM) was over 0.1 µM and the IC50 (second compound 10 µM) was under 0.000316 µM. The viability, T/C (second compound 0.0316 µM, first compound 0.000316 µM) was 105%, the viability, T/C (second compound 0.0316 µM, first compound 0.001 µM) was 96.5% and the viability, T/C [1] was 110%. The viability, T/C [2] was 105%, the viability, T/C [3] was 108% and the viability, T/C [4] was 111%. For the same compound, the viability, T/C (second compound 0.1 µM, first compound 0.000316 µM) was 108%, the viability, T/C (second compound 0.1 µM, first compound 0.001 µM) was 99.1% and the viability, T/C [5] was 107%. It also gave a viability, T/C [6] of 107%, a viability, T/C [7] of 123% and a viability, T/C [8] of 110%. It also gave a viability, T/C (second compound 0.316 µM, first compound 0.000316 µM) of 110%, a viability, T/C (second compound 0.316 µM, first compound 0.001 µM) of 101% and a viability, T/C [9] of 96.3%. For the same compound, the viability, T/C [10] was 108%, the viability, T/C [11] was 104% and the viability, T/C [12] was 115%. It also gave a viability, T/C (second compound 1 µM, first compound 0.000316 µM) of 95.2%, a viability, T/C (second compound 1 µM, first compound 0.001 µM) of 98.1% and a viability, T/C [13] of 96%. For the same compound, the viability, T/C [14] was 98.7%, the viability, T/C [15] was 104% and the viability, T/C [16] was 102%. The viability, T/C (second compound 3.16 µM, first compound 0.000316 µM) was 68.3%, the viability, T/C (second compound 3.16 µM, first compound 0.001 µM) was 58.9% and the viability, T/C (second compound 3.16 µM, first compound 0.00316 µM) was 71.8%. The viability, T/C (second compound 3.16 µM, first compound 0.01 µM) was 69.4%, the viability, T/C [17] was 58.4% and the viability, T/C [18] was 79%. The viability, T/C (second compound 10 µM, first compound 0.000316 µM) was 40.4%, the viability, T/C (second compound 10 µM, first compound 0.001 µM) was 41.7% and the viability, T/C (second compound 10 µM, first compound 0.00316 µM) was 39.5%. It also gave a viability, T/C (second compound 10 µM, first compound 0.01 µM) of 33%, a viability, T/C [19] of 41.4% and a viability, T/C [20] of 36.4%.
Compound `CC1(C)CCC(CN2CCN(c3ccc(C(=O)NS(=O)(=O)c4ccc(NCC5CCOCC5)c([N+](=O)[O-])c4)c(Oc4cnc5[nH]ccc5c4)c3)CC2)=C(c2ccc(Cl)cc2)C1` + CC(Nc1ncnc2nc[nH]c12)c1cc2cccc(Cl)c2c(=O)n1-c1ccccc1 has an IC50 (second compound 0.0316 µM) of 8.41 µM, an IC50 (second compound 0.1 µM) of 9.89 µM and an IC50 (second compound 0.316 µM) of 9.97 µM. It also gave an IC50 (second compound 1 µM) of 9.98 µM, an IC50 (second compound 3.16 µM) of 7.56 µM and an IC50 (second compound 10 µM) of 6.37 µM. It also gave a viability, T/C [3] of 104%, a viability, T/C [4] of 86.6% and a viability, T/C [21] of 107%. For the same compound, the viability, T/C [22] was 99.5%, the viability, T/C (second compound 0.0316 µM, first compound 3.16 µM) was 85.2% and the viability, T/C (second compound 0.0316 µM, first compound 10 µM) was 43.6%. The viability, T/C [7] was 91.6%, the viability, T/C [8] was 108% and the viability, T/C [23] was 85.4%. For the same compound, the viability, T/C [24] was 89.2%, the viability, T/C (second compound 0.1 µM, first compound 3.16 µM) was 84.8% and the viability, T/C (second compound 0.1 µM, first compound 10 µM) was 49.1%. For the same compound, the viability, T/C [11] was 99.4%, the viability, T/C [12] was 101% and the viability, T/C [25] was 102%. It also gave a viability, T/C [26] of 102%, a viability, T/C (second compound 0.316 µM, first compound 3.16 µM) of 82.4% and a viability, T/C (second compound 0.316 µM, first compound 10 µM) of 50%. The viability, T/C [15] was 103%, the viability, T/C [16] was 100% and the viability, T/C [27] was 94.5%. The viability, T/C [28] was 96.8%, the viability, T/C (second compound 1 µM, first compound 3.16 µM) was 74.4% and the viability, T/C (second compound 1 µM, first compound 10 µM) was 49.9%. It also gave a viability, T/C [17] of 103%, a viability, T/C [18] of 95.3% and a viability, T/C (second compound 3.16 µM, first compound 0.316 µM) of 85.2%. It also gave a viability, T/C (second compound 3.16 µM, first compound 1 µM) of 89.8%, a viability, T/C (second compound 3.16 µM, first compound 3.16 µM) of 79.8% and a viability, T/C (second compound 3.16 µM, first compound 10 µM) of 40.5%. For the same compound, the viability, T/C [19] was 82.1%, the viability, T/C [20] was 78.8% and the viability, T/C (second compound 10 µM, first compound 0.316 µM) was 87%. It also gave a viability, T/C (second compound 10 µM, first compound 1 µM) of 78.1%, a viability, T/C (second compound 10 µM, first compound 3.16 µM) of 62.3% and a viability, T/C (second compound 10 µM, first compound 10 µM) of 42.1%.
`CCN1CCN(Cc2ccc(Nc3ncc(F)c(-c4cc(F)c5nc(C)n(C(C)C)c5c4)n3)nc2)CC1` + CC(Nc1ccc2c(c1)OCCn1cc(N3C(=O)OCC3C(F)F)nc1-2)C(N)=O gave an IC50 (second compound 0.00316 µM) of over 1 µM, an IC50 (second compound 0.01 µM) of over 1 µM and an IC50 (second compound 0.0316 µM) of over 1 µM. It also gave an IC50 (second compound 0.1 µM) of over 1 µM, an IC50 (second compound 0.316 µM) of over 1 µM and an IC50 (second compound 1 µM) of over 1 µM. The viability, T/C (second compound 0.00316 µM, first compound 0.00316 µM) was 102%, the viability, T/C (second compound 0.00316 µM, first compound 0.01 µM) was 104% and the viability, T/C (second compound 0.00316 µM, first compound 0.0316 µM) was 99.3%. For the same compound, the viability, T/C (second compound 0.00316 µM, first compound 0.1 µM) was 105%, the viability, T/C (second compound 0.00316 µM, first compound 0.316 µM) was 123% and the viability, T/C (second compound 0.00316 µM, first compound 1 µM) was 131%. The viability, T/C (second compound 0.01 µM, first compound 0.00316 µM) was 94.9%, the viability, T/C (second compound 0.01 µM, first compound 0.01 µM) was 102% and the viability, T/C (second compound 0.01 µM, first compound 0.0316 µM) was 96.8%. The viability, T/C (second compound 0.01 µM, first compound 0.1 µM) was 125%, the viability, T/C (second compound 0.01 µM, first compound 0.316 µM) was 138% and the viability, T/C (second compound 0.01 µM, first compound 1 µM) was 120%. The viability, T/C [1] was 103%, the viability, T/C [2] was 104% and the viability, T/C [3] was 117%. The viability, T/C [4] was 115%, the viability, T/C [21] was 133% and the viability, T/C [22] was 110%. The viability, T/C [5] was 115%, the viability, T/C [6] was 103% and the viability, T/C [7] was 90.2%. For the same compound, the viability, T/C [8] was 107%, the viability, T/C [23] was 101% and the viability, T/C [24] was 86.1%. For the same compound, the viability, T/C [9] was 86.1%, the viability, T/C [10] was 76.7% and the viability, T/C [11] was 71.4%. It also gave a viability, T/C [12] of 75.7%, a viability, T/C [25] of 77.7% and a viability, T/C [26] of 61.7%. For the same compound, the viability, T/C [13] was 57.3%, the viability, T/C [14] was 48.3% and the viability, T/C [15] was 52.3%. For the same compound, the viability, T/C [16] was 56.8%, the viability, T/C [27] was 52.7% and the viability, T/C [28] was 58%.
